In article PMC11221189, “Gut microbiota DPP4-like enzymes are increased in type-2 diabetes and contribute to incretin inactivation” (Genome Biology, 2024):
Several values for one entry are separate records, joined by “and”; a condition that tells them apart may be missing. Identical values can stand only once. Entries after “also recorded” stand apart in the source; their conditions may differ. Peptide text beside a SMILES is read from it. * marks the point of attachment. pNA = O=[N+]([O-])c1ccc(N*)cc1

Tests used:
pmDPP4Δ23 = pmDPP4Δ23 (Parabacteroides merdae, UniProt A0AA37KD06); format: biochemical; conditions: for EC50 pmDPP4: gpPNA substrate, non-linear fit, sitagliptin and linagliptin data did not fit (R^2 ND); for Effect on pmDPP4Δ23 hydrolytic activity (in words): gpPNA hydrolysis
depression-like behavior = conditions: obesogenic diet; cited from earlier work
[1] = system: T1, pmDPP4Δ23 (headed pmDPP4 in Table 1 and Table S1); test: Overall Km for gpPNA without inhibitor, from the colorimetric kinetics at pH 8.3 and 37 °C.; format: biochemical; conditions: read-out: overall estimated Km
T1 construct: N-terminal 6 x His tag; expressed from pET15b in E. coli BL21-DE3; dimer in solution
Protocol: (§1) The hydrolytic activity of the bacterial DPP4 enzyme was measured using Gly-Pro p-nitroanilide hydrochloride (gpPNA) (Sigma), as described for assessing hsDPP4 activity. […] Briefly, 20 µL of each cell-free supernatant was placed in triplicate in a flat 96-well plate. Two hundred microliters of the respective PNA solutions were plated in duplicate to obtain the standard curve. […] The enzymatic activity ([PNA generated (nM) / hydrolysis time (min)] / pmole enzyme) was quantified between 10 and 30 min of incubation time (linear kinetics). Three independent experiments with different purified protein batches were performed. The same protocol was followed for the murine samples (cecal content and plasma from the portal vein). In the case of the cecal content, the values of DPP4 activity were normalized by the amount of protein, quantified by the Bradford method (Bio-Rad, Hercules, CA).

[2] = system: T1, pmDPP4Δ23 (headed pmDPP4 in Table 1 and Table S1); test: Colorimetric steady-state kinetics of gpPNA hydrolysis (0.31 to 2.5 mM) without inhibitor, 50 mM Tris-HCl pH 8.3, 37 °C, 380 nm, Lineweaver-Burk analysis.; format: biochemical; conditions: SD, n = 3; read-out: Km (mM), inhibitor 0 nM
Protocol: as §1
Figure S3. Gliptin inhibition kinetics on pmDPP4Δ23. Lineweaver-Burk double-reciprocal (1/V and 1/S) plots showing pmDPP4Δ23 (bottom panels) and hsDPP4 (top panels) […]
(100 nM, burgundy lines) concentrations. The apparent Km was calculated respectively from inhibitor-associated data points using linear regression to find intersection point at the y-axis (1/S). V, reaction velocity (nmol PNA min-1 pmole enzyme-1); S, substrate concentration (mM gpPNA).
(1 picture or pasted object on this page, not shown here) […]

Sequence of pmDPP4Δ23 (A0AA37KD06 entry or part of it, stated change not applied): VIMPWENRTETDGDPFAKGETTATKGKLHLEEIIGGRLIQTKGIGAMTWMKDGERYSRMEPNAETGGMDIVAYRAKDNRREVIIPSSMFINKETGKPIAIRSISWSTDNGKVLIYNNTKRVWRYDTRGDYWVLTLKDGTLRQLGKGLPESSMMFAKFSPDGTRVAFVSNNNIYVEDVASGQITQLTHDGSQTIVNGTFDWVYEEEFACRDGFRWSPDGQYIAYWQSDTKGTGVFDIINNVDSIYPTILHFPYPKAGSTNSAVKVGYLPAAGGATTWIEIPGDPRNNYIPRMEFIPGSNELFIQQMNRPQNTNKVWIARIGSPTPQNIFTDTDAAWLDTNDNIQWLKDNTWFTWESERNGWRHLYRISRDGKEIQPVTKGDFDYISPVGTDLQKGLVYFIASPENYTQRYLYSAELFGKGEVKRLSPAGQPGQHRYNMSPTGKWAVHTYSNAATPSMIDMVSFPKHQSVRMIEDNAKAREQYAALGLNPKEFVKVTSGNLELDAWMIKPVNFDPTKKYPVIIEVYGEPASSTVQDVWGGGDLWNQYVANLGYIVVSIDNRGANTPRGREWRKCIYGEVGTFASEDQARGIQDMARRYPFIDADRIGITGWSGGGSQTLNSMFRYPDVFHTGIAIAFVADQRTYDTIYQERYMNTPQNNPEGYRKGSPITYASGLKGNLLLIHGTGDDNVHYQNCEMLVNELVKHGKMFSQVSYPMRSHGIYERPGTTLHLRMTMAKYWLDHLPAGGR

| SMILES | EC50 pmDPP4 (pmDPP4Δ23) | Effect on pmDPP4Δ23 hydrolytic activity (in words) (pmDPP4Δ23) | further results |
| --- | --- | --- | --- |
| N#C[C@@H]1CCCN1C(=O)CNC12CC3CC(CC(O)(C3)C1)C2 [Vildagliptin, vildagliptin] | nanomolar range | – | – |
| N[C@@H](CC(=O)N1CCn2c(nnc2C(F)(F)F)C1)Cc1cc(F)c(F)cc1F [Sitagliptin, sitagliptin] | – | not inhibited; also recorded: almost null effect; also recorded: minimally inhibited | Depression-like behavior associated with increased systemic DPP4 activity (depression-like behavior): counteracted |
| N#C[C@@H]1C[C@@H]2C[C@@H]2N1C(=O)[C@@H](N)C12CC3CC(CC(O)(C3)C1)C2 [Saxagliptin, saxagliptin] | nanomolar range | – | – |
| CC#CCn1c(N2CCC[C@@H](N)C2)nc2c1c(=O)n(Cc1nc(C)c3ccccc3n1)c(=O)n2C [Linagliptin, linagliptin] | – | not inhibited; also recorded: almost null effect; also recorded: minimally inhibited | – |
| NCC(=O)N1CCC[C@H]1C(=O)Nc1ccc([N+](=O)[O-])cc1 [gpPNA, Gly-Pro p-nitroanilide] (H-Gly-Pro-pNA) | – | – | Km [1]: 1630 µM; Km [2]: 1.6 mM and 1.79 mM and 1.66 mM and 1.46 mM |
